# pIC50: −log10 of the molar value.
# Experiments:
# Human AML MV-4-11 cells = test: Inhibition of cell proliferation in cancer cell lines (CellTiter Aqueous One); type: cell-based; conditions: Homo sapiens; MV4-11 cells, 72 h
# Protocol: MV4-11 cells (CRL-9591) were plated at a density of 5×10^4 cells per well in 96 well flat bottom plates and treated with increasing concentrations of test compound or DMSO (0.1%) in IMDM media containing 10% FBS and penicillin/streptomycin. Triplicate wells were used for each concentration and a well containing only media was used as a control. Plates were incubated at 37° C., 5% CO2 for 72 h before adding 20 μL of the CellTiter Aqueous One Solution (Promega) to each well and incubated at 37° C., 5% CO2 for an additional 3-4 h. The absorbance was read at 490 nm in a spectrophotometer and the percentage of cell titer relative to DMSO-treated cells was calculated after correcting for background by subtracting the blank well's signal. IC50 values were calculated using the GraphPad Prism software.
# [1] = target: T1, Brd4 bromodomain 1 (BRD4(1)) (Homo sapiens, UniProt O60885); test: Inhibition of tetra-acetylated histone H4 binding to BET bromodomain (HTRF/FRET); conditions: His-tagged bromodomain 200 nM, tetra-acetylated histone H4 peptide, 2 h room temperature
# T1 construct: made in house; host or cells: E. coli BL21(DE3)
# Protocol: Proteins were cloned and overexpressed with a N-terminal 6× His tag, then purified by nickel affinity followed by size exclusion chromatography. Briefly, E. coli BL21(DE3) cells were transformed with a recombinant expression vector encoding N-terminally Nickel affinity tagged bromodomains from Brd2, Brd3, Brd4. Cell cultures were incubated at 37° C. with shaking to the appropriate density and induced overnight with IPTG. The supernatant of lysed cells was loaded onto Ni-IDA column for purification. Eluted protein was pooled, concentrated and further purified by size exclusion chromatography. Fractions representing monomeric protein were pooled, concentrated, aliquoted, and frozen at −80° C. for use in subsequent experiments.
# Binding of tetra-acetylated histone H4 and BET bromodomains was confirmed by a Homogenous Time Resolved Fluorescence Resonance Energy Transfer (HTRF®) method. N-terminally His-tagged bromodomains (200 nM) and biotinylated tetra-acetylated historic H4 peptide (25-50 nM, Millipore) were incubated in the presence of Europium Cryptate-labeled streptavidin (Cisbio Cat. #610SAKLB) and XL665-labeled monoclonal anti-His antibody (Cisbio Cat. #61HISXLB) in a white 96 well microtiter plate (Greiner). For inhibition assays, serially diluted test compound was added to these reactions in a 0.2% final concentration of DMSO. Duplicate wells were used for each concentration tested. Final buffer concentrations were 30 mM HEPES pH 7.4, 30 mM NaCl, 0.3 mM CHAPS, 20 mM phosphate pH 7.0, 320 mM KF, 0.08% BSA. After a 2 h incubation at room temperature, fluorescence was measured at 665 and 620 nm with a SynergyH4 plate reader (Biotek). The binding inhibitory activity was shown by a decrease in 665 nm relative to […] fluorescence. IC50 values were determined from a dose response curve.
# [2] = system: c-myc in Human AML MV4-11 cells; test: Inhibition of cMYC expression in cancer cell lines (mRNA, real-time PCR); type: cell-based; conditions: 3 h, cMYC mRNA normalized to Cyclophilin; for pIC50: Homo sapiens
# Protocol: MV4-11 cells (CRL-9591) were plated at a density of 2.5×10^4 cells per well in 96 well U-bottom plates and treated with increasing concentrations of test compound or DMSO (0.1%) in IMDM media containing 10% FBS and penicillin/streptomycin, and incubated for 3 h at 37° C. Triplicate wells were used for each concentration. Cells were pelleted by centrifugation and harvested using the mRNA Catcher PLUS kit according to manufacturer's instructions. The eluted mRNA isolated was then used in a one-step quantitative real-time PCR reaction, using components of the RNA UltraSense™ One-Step Kit (Life Technologies) together with Applied Biosystems TaqMan® primer-probes for cMYC and Cyclophilin. Real-time PCR plates were run on a ViiA™ 7 real time PCR machine (Applied Biosystems), data was analyzed, normalizing the Ct values for cMYC to an internal control, prior to determining the fold expression of each sample, relative to the control.
# hIL-6 mRNA = test: Inhibition of hIL-6 mRNA transcription in LPS-stimulated U937 cells; type: cell-based; conditions: Homo sapiens, U-937; PMA-differentiated U937 cells, 1 h pretreatment, LPS 1 ug/mL, 3 h; read-out: IL-6 activity
# Protocol: Human leukemic monocyte lymphoma U937 cells (CRL-1593.2) were plated at a density of 3.2×10^4 cells per well in a 96-well plate in 100 μL RPMI-1640 containing 10% FBS and penicillin/streptomycin, and differentiated into macrophages for 3 days in 60 ng/mL PMA ([…]) at 37° C. in 5% CO2 prior to the addition of compound. The cells were pretreated for 1 h with increasing concentrations of test compound in 0.1% DMSO prior to stimulation with 1 ug/mL lipopolysaccharide from Escherichia coli. Triplicate wells were used for each concentration. The cells were incubated at 37° C., 5% CO2 for 3 h before the cells were harvested. At time of harvest, media was removed and cells were rinsed in 200 μL PBS. Cells were harvested using the mRNA Catcher PLUS kit according to manufacturer's instructions. The eluted mRNA was then used in a one-step quantitative real-time PCR reaction using components of the RNA UltraSense™ One-Step Kit (Life Technologies) together with Applied Biosystems TaqMan® primer-probes for hIL-6 and Cyclophilin. Real-time PCR plates were run on a ViiA™ 7 real time PCR machine (Applied Biosystems), data was analyzed, normalizing the Ct values for hIL-6 to an internal control, prior to determining the fold expression of each sample, relative to the control.
Compound,pIC50 (Human AML MV-4-11 cells),pIC50 [1],pIC50 (hIL-6 mRNA),pIC50 [2],c-myc activity [2]
"COc1cccc(Nc2cc(-c3c(C)noc3C)c[nH]c2=O)c1 [Example 7, 5-(3,5-dimethylisoxazol-4-yl)-3-((3-methoxyphenyl)amino)pyridin-2(1H)-one]",4.52 to 5.52,5.52 to 6.52,,,
"Cc1noc(C)c1-c1c[nH]c(=O)c(NCc2ccc(C(F)(F)F)cc2)c1 [Example 10, 5-(3,5-dimethylisoxazol-4-yl)-3-((4-(trifluoromethyl)benzyl)amino)pyridin-2(1H)-one]",4.52 to 5.52,5.52 to 6.52,5.52 to 6.52,4.52 to 5.52,
"Cc1noc(C)c1-c1c[nH]c(=O)c(NCc2ccncc2)c1 [Example 11, 5-(3,5-dimethylisoxazol-4-yl)-3-((pyridin-4-ylmethyl)amino)pyridin-2(1H)-one]",4.52 to 5.52,5.52 to 6.52,5.52 to 6.52,4.52 to 5.52,
"Cc1noc(C)c1-c1c[nH]c(=O)c(Nc2ccccc2F)c1 [Example 15, 5-(3,5-dimethylisoxazol-4-yl)-3-((2-fluorophenyl)amino)pyridin-2(1H)-one]",,5.52 to 6.52,,,
"Cc1noc(C)c1-c1c[nH]c(=O)c(Nc2ccc(F)cc2)c1 [Example 16, 5-(3,5-dimethylisoxazol-4-yl)-3-((4-fluorophenyl)amino)pyridin-2(1H)-one]",,5.52 to 6.52,,,
"Cc1noc(C)c1-c1c[nH]c(=O)c(NC(C)c2ccc(Cl)cc2)c1 (centres unmarked) [Example 18, 3-((1-(4-chlorophenyl)ethyl)amino)-5-(3,5-dimethylisoxazol-4-yl)pyridin-2(1H)-one]",4.52 to 5.52,5.52 to 6.52,,5.52 to 6.52,
"Cc1noc(C)c1-c1c[nH]c(=O)c(NCc2ccc(Br)cc2)c1 [Example 19, 3-((4-bromobenzyl)amino)-5-(3,5-dimethylisoxazol-4-yl)pyridin-2(1H)-one]",4.52 to 5.52,5.52 to 6.52,,4.52 to 5.52,
"Cc1noc(C)c1-c1c[nH]c(=O)c(NCCc2ccccc2)c1 [Example 22, 5-(3,5-dimethylisoxazol-4-yl)-3-(phenethylamino)pyridin-2(1H)-one]",,5.52 to 6.52,,,
"Cc1noc(C)c1-c1c[nH]c(=O)c(OCc2ccc(C#N)cc2)c1 [Example 25, 4-(((5-(3,5-dimethylisoxazol-4-yl)-2-oxo-1,2-dihydropyridin-3-yl)oxy)methyl)benzonitrile]",,5.52 to 6.52,,,
"Cc1noc(C)c1-c1c[nH]c(=O)c(OCc2ccccn2)c1 [Example 26, 5-(3,5-dimethylisoxazol-4-yl)-3-(pyridin-2-ylmethoxy)pyridin-2(1H)-one]",,5.52 to 6.52,,,
"Cc1noc(C)c1-c1c[nH]c(=O)c(Nc2ccc(C#N)cc2)c1 [Example 28, 4-((5-(3,5-dimethylisoxazol-4-yl)-2-oxo-1,2-dihydropyridin-3-yl)amino)benzonitrile]",,5.52 to 6.52,,,
"Cc1noc(C)c1-c1c[nH]c(=O)c(Nc2ccc(Cl)cc2)c1 [Example 29, 3-((4-chlorophenyl)amino)-5-(3,5-dimethylisoxazol-4-yl)pyridin-2(1H)-one]",4.52 to 5.52,5.52 to 6.52,,4.52 to 5.52,
"Cc1noc(C)c1-c1c[nH]c(=O)c(NCc2cnoc2)c1 [Example 31, 5-(3,5-dimethylisoxazol-4-yl)-3-((isoxazol-4-ylmethyl)amino)pyridin-2(1H)-one]",,5.52 to 6.52,,,
"Cc1noc(C)c1-c1c[nH]c(=O)c(-c2c(C)noc2C)c1 [Example 32, 3,5-bis(3,5-dimethylisoxazol-4-yl)pyridin-2(1H)-one]",,4.52 to 5.52,,,
"Cc1noc(C)c1-c1c[nH]c(=O)c(NCc2nc3ccccc3[nH]2)c1 [Example 38, 3-(((1H-benzo[d]imidazol-2-yl)methyl)amino)-5-(3,5-dimethylisoxazol-4-yl)pyridin-2(1H)-one]",,5.52 to 6.52,,,

# Further lines, with some results ahead:
pIC50 (Human AML MV-4-11 cells),pIC50 [1],pIC50 (hIL-6 mRNA),Compound,pIC50 [2],c-myc activity [2]
4.52 to 5.52,≥ 6.52,5.52 to 6.52,"Cc1noc(C)c1-c1c[nH]c(=O)c(N[C@@H](C)c2ccccn2)c1 (single isomer, unassigned) [Example 41]",4.52 to 5.52,
5.52 to 6.52,≥ 6.52,5.52 to 6.52,"Cc1noc(C)c1-c1c[nH]c(=O)c(N[C@H](C)c2ccccn2)c1 (single isomer, unassigned) [Example 42]",,Not Active
4.52 to 5.52,5.52 to 6.52,5.52 to 6.52,"Cc1noc(C)c1-c1c[nH]c(=O)c(Nc2cccc(F)c2)c1 [Example 3, 5-(3,5-dimethylisoxazol-4-yl)-3-((3-fluorophenyl)amino)pyridin-2(1H)-one]",5.52 to 6.52,
,5.52 to 6.52,,"Cc1noc(C)c1-c1c[nH]c(=O)c(Oc2ccccc2)c1 [Example 5, 5-(3,5-dimethylisoxazol-4-yl)-3-phenoxypyridin-2(1H)-one]",,
5.52 to 6.52,≥ 6.52,5.52 to 6.52,"Cc1cccc(Nc2cc(-c3c(C)noc3C)c[nH]c2=O)c1 [Example 6, 5-(3,5-dimethylisoxazol-4-yl)-3-(m-tolylamino)pyridin-2(1H)-one]",,
4.52 to 5.52,≥ 6.52,5.52 to 6.52,"Cc1noc(C)c1-c1c[nH]c(=O)c(NCc2ccc(Cl)cc2)c1 [Example 8, 3-((4-chlorobenzyl)amino)-5-(3,5-dimethylisoxazol-4-yl)pyridin-2(1H)-one]",4.52 to 5.52,
4.52 to 5.52,≥ 6.52,5.52 to 6.52,"Cc1noc(C)c1-c1c[nH]c(=O)c(NCc2ccc(C#N)cc2)c1 [Example 9, 4-(((5-(3,5-dimethylisoxazol-4-yl)-2-oxo-1,2-dihydropyridin-3-yl)amino)methyl)benzonitrile]",5.52 to 6.52,
5.52 to 6.52,≥ 6.52,5.52 to 6.52,"Cc1noc(C)c1-c1c[nH]c(=O)c(NCc2ccc(Cl)s2)c1 [Example 12, 3-(((5-chlorothiophen-2-yl)methyl)amino)-5-(3,5-dimethylisoxazol-4-yl)pyridin-2(1H)-one]",,
5.52 to 6.52,≥ 6.52,5.52 to 6.52,"Cc1noc(C)c1-c1c[nH]c(=O)c(NCc2ccsc2)c1 [Example 13, 5-(3,5-dimethylisoxazol-4-yl)-3-((thiophen-3-ylmethyl)amino)pyridin-2(1H)-one]",5.52 to 6.52,
,≥ 6.52,5.52 to 6.52,"Cc1noc(C)c1-c1c[nH]c(=O)c(NCc2cccnc2)c1 [Example 23, 5-(3,5-dimethylisoxazol-4-yl)-3-((pyridin-3-ylmethyl)amino)pyridin-2(1H)-one]",5.52 to 6.52,
